Measured values taken from article PMC7092479, “Antiviral activity of silymarin in comparison with baicalein against EV-A71” (BMC Complementary Medicine and Therapies, 2020).
Values after ≈ are worked out from the molar mass of the structure shown. Read-outs that look alike come from different tables or passages of the source.

Legend:
[1] = Cytotoxicity assay (MTS) in RD cells; conditions: human, CC50 (half maximal cytotoxic concentration), 24 h, MTS assay
Description: (§1) CellTiter 96® AQueous One Solution Cell Proliferation MTS [3-(4,5-dimethylthiazol-2-yl)-5-(3-carboxymethoxyphenyl)-2-(4-sulfophenyl)-2H-tetrazolium] assay kit (Promega, Madison, WI, USA) was used to evaluate the cytotoxicity of the three flavonoids according to the manufacturer’s instruction. Briefly, RD or Vero cells were seeded overnight in 96 well plates with a density of 2 × 10^5 cells/mL. Cells were then treated with various concentrations of silymarin (6.25, 12.5, 25, 50,100 and 200 μg/mL), baicalein (1.68, 3.37, 6.75, 13.5, 27, 54 and 108, μg/mL) and baicalin (2.78, 5.57, 11.15, 22.31, 44.63 and 89.26 μg/mL) prepared in maintenance media. RD or Vero cells without test compounds served as a negative control. The plate was further incubated for 24 h at 37 °C. An aliquot of 20 μL of MTS solution was added to each well and the plate was incubated for 1 h at 37 °C. The absorbance was measured at 490 nm with an Infinite 200 Pro Multiplate Reader (Tecan, Männdedorf, Switzerland) (Supplementary Figure S1). The half-maximal cytotoxic concentration (CC50) and 10% cytotoxic concentration (CC10) for each flavonoid were determined using GraphPad Prism software, version 7 (GraphPad Software, Calif, USA).

RD cells [2] = test: Cytotoxicity assay (MTS) in RD cells
Description: as §1

[3] = Cytotoxicity assay (MTS) in Vero cells; conditions: African green monkey, Vero cells
Description: as §1

Vero cells = test: Cytotoxicity assay (MTS) in Vero cells
Description: as §1

EV-A71 [4] = test: microbe, parasite or virus in culture; format: cell-based, Enterovirus 71 (EV-A71) strain 41 (5865/SIN/000009); conditions: for inhibition at 54 µg/mL: EVA71, RD, read-out: Inhibition of EV-A71 viral infectivity, virucidal assay
Description: (§2) The plaque assay was performed using the method described by Tan et al. (2012) with minor modifications. Briefly, 6 well plates with 6 × 10^5 RD cells/mL were prepared and incubated to grow overnight at 37 °C. The supernatants collected from antiviral assays were serially diluted (10-folds) and the cell monolayer was infected with each dilution. The plates were incubated at 37 °C for 1 h. After removal of the inoculum, 1.5–2 mL of 0.9% of high viscosity carboxy methyl cellulose (CMC) (Sigma Aldrich, MO, USA) with 2% FBS in DMEM (overlay media) were added to each well. After incubation for 3 days, the overlaid media was removed. The cells were washed three times with phosphate buffered saline (PBS), fixed with 3.7% formaldehyde and stained with 0.5% crystal violet. The plaques were counted manually against a white background and pictures were taken using the CTL Immunospot® S6 Versa (Cleveland, OH, USA). All experiments were performed as three independent replicates.
(§3) RNA extractions were performed using the QIAamp ViralRNA mini kit (Qiagen, Hilden, Germany) according to the manufacturer’s instructions. TaqMan® Fast virus 1-step master mix (ABI, Carlsbad, Calif, USA) was used to carry out qRT-PCR in the CFX96 TouchTM Real-Time PCR Detection System (Bio-Rad, Calif, USA). The cDNA synthesis was carried out by reverse transcription for 5 min at 50 °C and subsequently amplified for 40 cycles at 95 °C for 3 s, 60 °C for 30 s. A standard graph was plotted using serial dilutions of the standard viral stock. The threshold cycle value (Cq) was calculated using the default setting of the machine. All experiments were performed in triplicates.
RD cells (2 × 10^4/well) were grown overnight in wells of a 96 well plate. The virus was pre-treated with each of the flavonoids for 1 h at MOI of 1 (pfu/ml = 2 × 10^4/0.1 mL). Cells were infected with the pre-treated virus-flavonoid-mixture. The inoculum was allowed to incubate with the RD cells at 37 ° for 1 h. After 1 h, the inoculum was removed, cells were washed with PBS and maintenance media was replaced. After 24 h, the supernatant was collected and infectious viral titers were quantified using the plaque assay. RNA copy number was determined by qRT-PCR [21] [Supplementary Figure S2(a)].

EV-A71 [5] = test: Time course assay for virucidal activity; format: cell-based, Enterovirus 71 (EV-A71) strain 41 (5865/SIN/000009); conditions: 54 μg/mL, 60 min co-incubation with EV-A71 at 37 °C, plaque assay
Description: as §2, with “After removal of the inoculum, 1.5–2 mL of 0.9% of high viscosity carboxy methyl cellulose (CMC) (Sigma Aldrich, MO, USA) with 2% FBS in DMEM (overlay media) were added to each well.” left out, “replicates. RD cells (2 × 10^4/well) were grown overnight in wells of a 96 well plate. […] Cells were infected with the pre-treated virus-flavonoid-mixture and allowed to incubate with the RD cells at 37 °C for 1 h. After 1 h, the inoculum was removed, cells were washed with PBS and maintenance media was added. After 24 h, the supernatant was collected and infectious viral titers were quantified using the plaque assay.” for “replicates.”

EV-A71 [6] = test: Cell protection assay (RD cells pre-treated); format: cell-based, Enterovirus 71 (EV-A71) strain 41 (5865/SIN/000009); conditions: 54 μg/mL; for inhibition at 54 µg/mL: Enterovirus A, EVA71, RD, read-out: Inhibition of EV-A71 viral infectivity, cell protection assay
Description: as §2, §3
RD cells (2 × 10^4/well) were seeded overnight in each well within a 96 well plate. Cells were treated with different concentrations of a flavonoid for 1 h at 37 °C. After incubation, flavonoid containing media was removed and cells were washed with PBS. […] The supernatant was collected after 24 h and the infectious viral titers were quantified using the plaque assay. RNA copy number was determined using qRT-PCR [21] […]

EV-A71 [7] = test: Post-infection assay; format: cell-based, Enterovirus 71 (EV-A71) strain 41 (5865/SIN/000009); conditions: added 1 h after RD cells were infected, data not shown
Description: as §2, with “All experiments were performed as three independent replicates.” left out
RNA extractions were performed using the QIAamp ViralRNA mini kit (Qiagen, Hilden, Germany) according to the manufacturer’s instructions. […] The threshold cycle value (Cq) was calculated using the default setting of the machine. […]
RD cells (2 × 10^4/well) were grown overnight in wells of a 96 well plate. […] After 24 h, the supernatant was collected and infectious viral titers were quantified using the plaque assay. RNA copy number was determined using qRT-PCR [21] […]

EV-A71 [8] = test: microbe, parasite or virus in culture; format: cell-based, Enterovirus 71 (EV-A71) strain 41 (5865/SIN/000009); conditions: for inhibition at 54 µg/mL: EVA71, 54 μg/mL, read-out: Inhibition of EV-A71 viral infectivity, comprehensive assay
Description: as §2, §3
RD cells (2 × 10^4/well) were grown overnight in wells of a 96 well plate. A monolayer of RD cells was pre-treated with various concentrations of a flavonoid for 1 h and incubated at 37 °C. Simultaneously, the virus at MOI of 1 (pfu/ml = 2 × 10^4/0.1 mL) was pre-treated with the same concentrations of the flavonoid for 1 h at 37 °C. After incubation, flavonoid containing media was removed and the RD cells were washed with PBS. The flavonoid-treated virus was added to the pre-treated RD cells for 1 h at 37 °C. The inoculum was removed, RD cells were washed with PBS and replaced with the maintenance media (DMEM supplemented with 2% FBS). After 24 h, the supernatant was collected and infectious viral titers were quantified using the plaque assay. RNA copy number was determined using qRT-PCR [21] [Supplementary Figure S2(e)].

EV-A71 [9] = system: EV-A71; parameters: method as in Zhang et al. (2014) [27]; conditions: cells treated with 30 μM prior to EV-A71 infection; ref Zhang et al. (2014) [27]; cited from earlier work
RD cells [10] = system: RD cells; parameters: method as in Li et al. (2015) [16]; conditions: ref Li et al. (2015) [16]; cited from earlier work

For `O=c1cc(-c2ccccc2)oc2cc(O)c(O)c(O)c12` [Baicalein], the CC50 at 24 h ([1]; extrapolated value, above the tested concentration of 108 μg/mL) was 421.5 ± 3.23 µg/mL (≈ 1560 µM), the “CC10 (10% cytotoxic concentration)” value (RD cells [2]; 24 h, MTS assay) was 90.93 ± 3.94 µg/mL (≈ 336 µM) and the “CC10 (10% cytotoxic concentration)” value (RD cells [2]; 24 h, MTS assay, listed as baicalein) was 90.93 µg/mL (≈ 336 µM). For the same compound, the “Concentration up to which no significant cytotoxic effects were observed” value (RD cells [2]; 24 h incubation) was at most 54 µg/mL, the CC50 at 24 h [3] was 828.7 ± 0.93 µg/mL (≈ 3070 µM) and the CC10 (Vero cells; Vero cells, 24 h, MTS assay) was 148.9 ± 0.25 µg/mL (≈ 551 µM). The “Virucidal Assay SI (CC50/IC50)” value (EV-A71 [4]) was 13.64, the “Inhibition of EV-A71 viral infectivity, virucidal assay” value (EV-A71 [4]; 54 μg/mL, plaque assay) was 65.0% and the inhibition at 54 µg/mL (EV-A71 [4]; Enterovirus A, 54 μg/mL, plaque assay) was 64%. For the same compound, the inhibition at 54 µg/mL (EV-A71 [4]; Enterovirus A, 54 μg/mL, qRT-PCR (RNA copy number)) was 78.8%, the IC50 (EV-A71 [4]; Enterovirus A, EVA71, plaque assay, RD cells, virus pre-treated 1 h, MOI 1, read-out: Virucidal Assay IC50) was 30.9 ± 5.5 µg/mL (≈ 114 µM) and the “Virucidal effects against EV-A71 (time course)” value (EV-A71 [5]) was 60%. For the same compound, the “Inhibition of EV-A71 viral infectivity, cell protection assay” value (EV-A71 [6]; plaque assay) was “no inhibition”, the inhibition at 54 µg/mL (EV-A71 [6]; plaque assay) was 2.2% and the inhibition at 54 µg/mL (EV-A71 [6]; qRT-PCR) was 0%. The “Inhibition of EV-A71 post-infection” value (EV-A71 [7]) was “non-inhibitory”, the “Comprehensive Assay SI (CC50/IC50)” value (EV-A71 [8]) was 185.6 and the inhibition at 54 µg/mL (EV-A71 [8]; Enterovirus A, plaque assay) was 89.4%. For the same compound, the inhibition at 54 µg/mL (EV-A71 [8]; Enterovirus A, qRT-PCR (RNA copy number)) was 83%, the IC50 (EV-A71 [8]; Enterovirus A, EVA71, plaque assay, RD cells and virus both pre-treated 1 h, read-out: Comprehensive Assay IC50) was 2.27 ± 4.93 µg/mL (≈ 8.4 µM) and the “Effect as a prophylactic agent against EV-A71” value (EV-A71 [9]) was “non-effective”.
In the case of `O=C(O)[C@H]1O[C@@H](Oc2cc3oc(-c4ccccc4)cc(=O)c3c(O)c2O)[C@H](O)[C@@H](O)[C@@H]1O` [Baicalin, reference compound], the CC50 at 24 h [1] is reported as 42.2 µg/mL (≈ 94.5 µM), the “CC10 (10% cytotoxic concentration)” value (RD cells [2]; 24 h, MTS assay) is reported as 5.46 ± 5.02 µg/mL (≈ 12.2 µM) and the “CC50 (half maximal cytotoxic concentration)” value (RD cells [2]; 24 h, MTS assay) is reported as 42.21 ± 4.15 µg/mL (≈ 94.6 µM). For the same compound, the “CC10 (10% cytotoxic concentration)” value (RD cells [2]; 24 h, MTS assay, listed as baicalin) was 5.46 µg/mL (≈ 12.2 µM), the CC50 at 24 h [3] was 30.47 ± 0.06 µg/mL (≈ 68.3 µM) and the CC10 (Vero cells; Vero cells, 24 h, MTS assay) was 1.718 ± 0.16 µg/mL (≈ 3.85 µM). The CC50 (RD cells [10]) was 823.53 µg/mL (≈ 1840 µM).
For Silymarin, the CC10 (Vero cells) was 314.2 ± 0.06 µg/mL, the CC50 (Vero cells) was 753 ± 0.17 µg/mL and the “Concentration up to which no significant cytotoxicity was shown” value (Vero cells) was at most 200 µg/mL. The “Virucidal Assay SI (CC50/IC50)” value (EV-A71 [4]) was 10.53.
